Patent US20250302728A1, “FRAGRANCE COMPOSITIONS AND PRODUCTS CONVEYING A POSITIVE MOOD” (SYMRISE AG, priority 2022, published 2025)

What was measured:
Assay type in all cases: in vivo, human
subject's mood [1] = assay: Actimood scoring (correlation of EmoChar and IRT values); conditions: scale 0 (low impact) to 3 (high impact)
Description: (§1) 1. Sensorial and Emotional Evaluation of Fragrance Raw Materials Each fragrance was evaluated by 30 subjects. At each appointment, the subject discovered fragrances in one sequence of four fragrances and two sequences of three fragrances separated by a 10-minute break.
(§2) For each fragrance, the subject discovered each fragrance on a card strip for 10 seconds. Between each product, a rest-period of 2 minutes was carried out during which the subject smelt their own body odour by smelling their wrist and the subject drank a little bit of water as well.
Emochar™ is a system of emotional characterization, scoring 7 main emotional dimensions from 0 to 10: • Stimulation: focus, attention, and awakening. • Relaxation: serenity, relaxation and appeasing. • Sensual: arousing, sexy and erotic. • Pleasure: liking, “gourmand” and satisfaction. • Tenderness: gentleness and softness. • Joy: excitement, fun and enthusiasm. • Self-esteem: confidence and assurance
Actimood scores are based on a correlation of EmoChar™ and IRT values. The scores are classified on a scale from 0 (low impact on subject's mood) to 3 (high impact on subject's mood).
Each score is obtained according to an algorithm, mixing verbal and non-verbal responses of volunteers to a specific product, or stimulus in a given context. The algorithm was developed from extensive field data, and in accordance with scientific literature and validated biobehavioral patterns associated to various emotional states.

subject's mood [2] = assay: Sensorial and emotional evaluation of fragrance raw materials and fragrance compositions (prosody, verbatim, GEW, IRT, EmoChar combined to one mood); conditions: 30 subjects, card strip for 10 seconds; details in FIG. 1-9
Description: as §1
(§3) During those appointments, the subjects smelt the fragrances in a random way.
as §2
(§4) The evaluation is carried out in standardized lighting conditions and under a monitored temperature (temperature 21±1.5° C.).
The different recordings are carried in technical room during talking with the technicians. he following tests were performed for more than 100 different fragrance raw materials.
The following testing procedures were used to determine one mood out of five different testing strategies. All results of the single testing protocols as described in 1.1 to 1.5 were combined and one mood per fragrance raw material or fragrance composition was determined based on the single testing results.
Fragrance compositions were designed by combining the tested fragrance raw materials and the compositions were tested in 30 different subjects to evaluate the emotional impression conveyed by the fragrance composition as described above for the fragrance raw materials.

subject's mood [3] = assay: Implicit response test (IRT); design: scale not given here
Description: as §1, §3, §2, §4
Implicit response tests (IRTs) are a family of tests and assess the subjects' immediate, “gut instinct” responses the fragrance raw materials.
The alleged underlying processes are based on how neurosciences describe the way our brain processes information. Indeed, our brain processes information through two systems: System 2, which is slow and processes conscious information, and System 1, which is fast and processes non-conscious information.
The IRT tests are performed at a computer, where the following words appear on the computer screen: • Energizing • Relaxing • Attractive • Sensual • Joyful • Protective • Confident • Fresh • Well-being
The subject has to click on the screen with the computer mouse to indicate their accordance or not of the word with the tested fragrance. In addition, the times to click the button are recorded.

[4] = ingredients of the fragrance composition conveying an attractive mood (Table 2)

Row | Compound | Actimood score (subject's mood [1]; joyful mood (Table 6)) | mood conveyed by the fragrance raw material (subject's mood [2]) | Actimood score (subject's mood [1]; attractive mood (Table 11)) | Actimood score (subject's mood [1]; fresh mood (Table 12)) | Actimood score (subject's mood [1]; sensual mood (Table 8)) | Actimood score (subject's mood [1]; well-being mood (Table 10)) | IRT Score (subject's mood [3]; ingredients of the fragrance composition conveying a fresh mood (Table 1)) | IRT Score (subject's mood [3]; [4]) | Actimood score (subject's mood [1]; protective mood (Table 5)) | Actimood score (subject's mood [1]; self-confident mood (Table 9))
1 | C=CCOC(=O)CCC1CCCCC1 [ALLYL CYCLOHEXYL PROPIONATE, allyl 3-cyclohexylpropanoate] | 3 | conveying a joyful mood | – | – | – | – | – | – | – | –
2 | CC1(C)CCCC2(C)C1CCC1(C)OCCC12 (centres unmarked) [AMBROXIDE, 3a,6,6,9a-Tetramethyldodecahydronaphtho[2,1-b]furan] | 3 | conveying a self-confident mood | 3 | 3 | 2 | 3 | 1643 | 1921 | – | –
3 | CC1C(C)(C)C2=C(C(=O)CCC2)C1(C)C (centres unmarked) [CASHMERAN, 1,1,2,3,3,-pentamethyl-2,5,6,7-tetrahydroinden-4-one] | – | conveying a protective mood | 3 | – | – | 1 | – | 1469 | 2 | 2
4 | COC1(C)CCC23CC1C(C)(C)C2CCC3C (centres unmarked) [CEDRAMBER, 8-methoxy-2,6,6,8-tetramethyl-tricyclo[5.3.1.01,5]undecane] | – | conveying a sensual mood | – | – | 3 | 0 | – | – | – | –
5 | CCc1occc(=O)c1O [ETHYL MALTOL, 2-ethyl-3-hydroxy-pyran-4-one] | 3 | conveying an attractive mood | 3 | – | – | – | – | 3505 | – | –
6 | CCOc1cc(C=O)ccc1O [ETHYL VANILLIN, 3-ethoxy-4-hydroxy-benzaldehyde] | – | conveying a well-being mood | 3 | – | – | – | – | 2786 | 1 | –
7 | Oxacyclohexadecen-2-one [GLOBALIDE ®] | – | conveying a relaxing mood | 3 | – | – | 2 | – | 1815 | 2 | –
